Measured values as given in PubChem BioAssay (NCI).
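Following 48 hours of exposure in 96-well plates, responses at five concentrations were used to interpolate endpoints linearly. TGI is the concentration that stops growth completely.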

What was measured:
Assay in all cases: NCI tumour cell line growth inhibition, 48 h
ACHN renal = system: ACHN renal
SR leukemia = system: SR leukemia
SF-268 CNS = system: SF-268 CNS
TK-10 renal = system: TK-10 renal
RPMI-8226 leukemia = system: RPMI-8226 leukemia
RXF 393 renal = system: RXF 393 renal
M14 melanoma = system: M14 melanoma
LOX IMVI melanoma = system: LOX IMVI melanoma
MCF7 breast = system: MCF7 breast
SK-MEL-2 melanoma = system: SK-MEL-2 melanoma

SMILES	TGI (ACHN renal) [µM]	TGI (SR leukemia) [µM]	TGI (SF-268 CNS) [µM]	TGI (TK-10 renal) [µM]	TGI (RPMI-8226 leukemia) [µM]	TGI (RXF 393 renal) [µM]	TGI (M14 melanoma) [µM]	TGI (LOX IMVI melanoma) [µM]	TGI (MCF7 breast) [µM]	TGI (SK-MEL-2 melanoma) [µM]
COc1cc(CC(C)NC(C)=O)cc(OC)c1 (stereo not drawn)	> 100	> 100	> 100	> 100	> 100	> 100	> 100	> 100	> 100	> 100
Cc1[nH]c(=O)nc(NCCNCCO)c1C(=O)Nc1cccc2cc3ccccc3cc12	> 100	> 100	> 100	> 100	> 100	> 100	> 100	> 100	> 44	> 100
CCCCSc1nsc(N(C(=O)c2ccccc2)C(=O)c2ccccc2)n1	> 100	48.3	> 100	> 100	47.2	> 100	> 100	> 100	> 100	71.1
Cn1c(=O)c2c(nc3n(Cc4ccccc4)c(=O)c(NCCCBr)cn23)n(C)c1=O	> 100	> 100	> 100	> 100	> 100	> 100	> 100	> 100	> 100	> 100
Cc1cc(S(=O)(=O)Nc2n[nH]c(-c3ccccn3)n2)c(S)cc1Cl	54.1	> 100	88.3	23.9	> 100	34.1	44.5	> 100	> 100	63.9
CS(=O)(=O)Nc1ccc2c(c1)N(S(C)(=O)=O)CC2CCl (stereo not drawn)	> 100	> 100	> 100	> 100	> 100	> 100		> 100	> 100	> 100
c1ccc2c(c1)Sc1nccc3ccnc-2c13	43.4	> 100	> 100	> 100	> 100	> 100	> 100	> 100	> 100	> 100
COc1ccc(Nc2nc(N)c(C(=O)c3c[nH]c4ccccc34)s2)cc1	> 100	0.796	> 100	> 30.7		11.4	16.4	> 100	18.8	> 72.5
COc1ccccc1CN=C1Nc2ccncc2S(=O)(=O)N1c1ccccc1	> 100	> 100		> 100	> 100	> 100	> 100	> 100	> 100	
C=C1C(OC2O[C@@H]3O[C@@]4(C)CC[C@H]5[C@H](C)CC[C@@H](C2=C)[C@@]35O4)O[C@@H]2O[C@@]3(C)CC[C@H]4[C@H](C)CC[C@@H]1[C@@]24O3 (stereo partly drawn)	> 50	> 50	> 50	> 50	> 50	> 50	> 50	> 50	> 50	> 50
Cc1cc(C)c(S(=O)(=O)N(CCCN)OCCCON(CCCN)S(=O)(=O)c2c(C)cc(C)cc2C)c(C)c1	28.9	7.83	2.8	16.5	6.55	15.7	3.21	3.11	3.41	3.29
COc1cc(C(=O)Oc2ccc3c(c2)OCO3)cc(OC)c1OC	> 100	> 100	> 100	> 100	> 100	> 100	> 100	> 100	> 100	> 100
C[C@]12CCC(=O)[C@@H](CCC3=CC(=O)C=CC3=O)[C@@H]1CCC2=O	32.5	> 100	39.5	30.4	> 100	5.43	59.1	39.3	37.2	27.1
N#C/C(=C/n1c(=S)[nH]c2ccc([N+](=O)[O-])cc21)C(N)=O	> 100	> 100	> 100	> 100	> 100	> 100	> 100	> 100	> 100	> 100
CSC(SC)=C(C(=O)O)P(=O)(O)O	> 100	> 100	> 100	> 100		> 100	> 100	> 100	> 100	> 100
COC(=O)C1(CCCCCBr)CCCCCCCCCCC1=O (stereo not drawn)	> 100	55.7	> 100	> 100		51.9	> 100	63.3	42.2	70.1
COC(=O)C1C(C(=O)OC)C2(OC(c3ccc(Cl)cc3)=CC2=O)C12OC(c1ccc(Cl)cc1)=CC2=O (stereo not drawn)	39.4	10.9	73.5	48.5	37.2	33.2	42.8	57.4	64.6	55.3
CCn1c2ccc(C(=O)CCCN3CCCCC3)cc2c2cc(C(=O)CCCN3CCCCC3)ccc21	15.8	5.31	18.6	15.9	4.7	7.31	3.6	4.47	4.94	3.52
COc1cc(C(c2c(O)c3ccccc3oc2=O)c2c(O)c3ccccc3oc2=O)cc(Br)c1O	31.2	58.3	30	30.6	80.4	39.6	31.4	33.8	31.3	42.5
COc1ccc2nc(/C(N)=C\C#N)ccc2c1	> 100	> 100	> 100	> 100	> 100	> 100	> 100	> 100	> 100	> 100
COc1cccc2c1C(=O)c1c(O)c3c(c(O)c1C2=O)C[C@H](O)C[C@@H]3OC1CC(N)C(O)C(C)O1 (stereo partly drawn)	3.54	0.229	10.6	7.15	8.8	25		2.92	21.2	5.41
